By IC50 is commonly meant the concentration that inhibits the measured activity by half. Low readings indicate greater potency in that assay, high ones weaker potency in that assay.

The target in test [1] is T1, human GRP receptor (BB2) (Homo sapiens, UniProt P30550).
T1 construct: expressed in transfected cells; host or cells: CHO-K1
The experiment in a line: BB2 binding assay ([125I][Tyr4]bombesin, CHO-K1 cell membranes). The procedure:
(§1) In the following experiments, measurement of BB1 and BB2 binding was as follows. CHO-K1 cells stably expressing cloned human NMB (for (BB1 assay) and GRP receptors (for BB2 assay) were routinely grown in Ham's F12 culture medium supplemented with 10% foetal calf serum and 2 mM glutamine. For binding experiments, cells were harvested by trypsinization, and stored frozen at −70° C. in Ham's F12 culture medium containing 5% DMSO until required. On the day of use, cells were thawed rapidly, diluted with an excess of culture medium, and centrifuged for 5 minutes at 2000 g. Cells were resuspended in 50 mM Tris-HCl assay buffer (pH 7.4 at 21° C., containing 0.02% BSA, 40 μg/mL bacitracin, 2 μg/mL chymostatin, 4 μg/mL leupeptin, and 2 μM phosphoramidon), counted, and polytronned (setting 5, 10 sec) before centrifuging for 10 minutes at 28,000 g. The final pellet was resuspended in assay buffer to a final cell concentration of 1.5×10^5/mL. For binding assays, 200 μL aliquots of membranes were incubated with [^125I][Tyr^4]bombesin (<0.1 nM) in the presence and absence of test compounds (final assay volume 250 μL) for 60 minutes and 90 minutes for NMB and GRP receptors, respectively. Nonspecific binding was defined by 1 μM bombesin. Assays were terminated by rapid filtration under vacuum onto Whatman GF/C filters presoaked in 0.2% PEI for >2 hours, and washed 50 mM Tris-HC (pH 6.9 at 21° C.; 6×1 mL). Radioactivity bound was determined using a gamma counter.
(§2) All competition data was analysed using nonlinear regression utilizing iterative curve-plotting procedures in Prism® (GraphPad Software Inc., San Diego, USA). IC50 values were corrected to Ki values using the Cheng-Prusoff equation (Cheng Y., PrusoffW. H., Biochem. Pharmacol. 22: 3099-3108, 1973).

Test [2] deals with T2, human NMB receptor (BB1) (Homo sapiens, UniProt P28336).
T2 construct: expressed in transfected cells; host or cells: CHO-K1
T2 sequence (P28336 whole entry): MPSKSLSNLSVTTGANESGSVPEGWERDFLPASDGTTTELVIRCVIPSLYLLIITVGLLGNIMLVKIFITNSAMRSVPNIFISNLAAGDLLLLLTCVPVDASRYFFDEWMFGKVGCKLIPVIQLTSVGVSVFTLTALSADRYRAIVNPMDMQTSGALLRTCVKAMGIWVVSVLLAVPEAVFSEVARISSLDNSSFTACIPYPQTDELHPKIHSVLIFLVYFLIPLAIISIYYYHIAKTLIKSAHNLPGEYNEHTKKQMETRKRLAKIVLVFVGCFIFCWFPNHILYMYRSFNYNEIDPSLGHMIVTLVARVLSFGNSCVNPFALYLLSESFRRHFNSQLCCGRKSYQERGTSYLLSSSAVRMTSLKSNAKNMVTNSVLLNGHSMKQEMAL
The experiment in a line: BB1 binding assay ([125I][Tyr4]bombesin, CHO-K1 cell membranes). The procedure:
as §1, §2

Test [3] relates to ovariectomised female Sprague Dawley rats. The experiment in a line: Plasma sexual hormone levels (radioimmunoassay) in ovariectomised female rats. The format is in vivo, rat. As to conditions: Compound (1) 3-10 mg/kg 1 h, progesterone 0.5 mg/0.1 ml s.c. 4 h before blood collection; vs vehicle. The method, then: Ovariectomised adult female Sprague Dawley rats (180-200 g) were housed in groups of 6 in a reversed lighting system of 12 h light:dark (lights off 7.00-19.00 h). They were used for the experiments at least two weeks after ovariectomy. Forty eight hours before tests, the animals were primed with oestradiol benzoate (5 μg/0.1 ml in corn oil, s.c.). Progesterone (0.5 mg/0.1 ml, in corn oil, s.c.) was administered 4 h before blood collection, as a positive control. Compound (1) (3-10 mg/kg, i.p.) was administered in 50% 2-hydroxypropyl-β-cyclodextrin, 1 h prior to blood collection. Blood was collected from the trunk, after decapitation. It was immediately centrifuged (3500 r.p.m., 4° C., 5 min) and the plasmas frozen until assayed for hormonal content, using commercially available radioimmunoassay kits (^125I-labelled hormones) for oestradiol, progesterone, LH, FSH and prolactin.

Test [4] has the same test system. The experiment in a line: Female rat sexual proceptivity (time investigating male vs female stimulus). The format is in vivo. As to conditions: day 1; Compound (1) 15 mg/kg i.p. 1 h before; progesterone 0.5 mg/0.1 ml s.c. 4 h before; vs vehicle, P<0.01. The procedure: Ovariectomised adult female Sprague Dawley rats (180-200 g, from Charles River) were housed in groups of 6 in a reversed lighting system of 12 h light:dark (lights off 7.00-19.00 h). Two weeks after ovariectomy they were used for sexual activity tests. The experiments started at least 5 h into the dark period.
Tests were carried out in a circular arena of 90 cm diameter, surrounded by a 30 cm high wall. Two small cages with wire-mesh front (15×15 cm) are fixed into the wall such that the front of the cage is <> with the wall and the 2 cages are opposite each other. They contained two stimuli animals: an intact sexually experienced male and a receptive female (ovariectomised, primed with 5 μg oestradiol benzoate dissolved in corn oil and injected subcutaneously 48 hours before the test and with 0.5 mg of progesterone four hours before the test). Sexually naive test and control animals were used. Forty eight hours before the tests, both the test and control animals were primed with 5 μg oestradiol benzoate. For animals used as positive controls, progesterone (0.5 mg/0.1 ml) was dissolved in corn oil and administered subcutaneously (s.c.), 4 h before the test. Test and control animals were introduced one at a time for 10 minute periods into the arena. During the 10 min test, the time that the test or positive control animal spent investigating each stimulus animal was noted. The arena was thoroughly cleaned between animals. The position of the male/female stimuli boxes was randomised between animals, in order to avoid place preference. The difference in the percentage of time spent investigating the male minus the female stimuli was calculated, out of the total time spent investigating stimuli animals.
Compound (1) was dissolved in 100% β-cyclodextrin and then diluted with saline to a final solution of 50% 2-hydroxypropyl-β-cyclodextrin. It was administered intraperitoneally (i.p.) at doses of 3 and 10 mg/kg, in a dosing volume of 1 ml/kg, 1 h before tests. Progesterone (0.5 mg/0.1 ml) was dissolved in corn oil and administered subcutaneously (s.c.), 4 h before test, as a positive control.
Ovariectomised adult female Sprague Dawley rats (180-200 g) were housed in groups of 5 in a reversed lighting system of 12 h light:dark (lights off 5.00-17.00 h). They were used for the experiments at least two weeks after ovariectomy. Forty eight hours before tests, the animals were primed with oestradiol benzoate (5 μg/0.1 ml in corn oil, s.c.). On day 1, progesterone (0.5 mg/0.1 ml, in corn oil, s.c.) was administered to one of the groups 4 h before tests, as a positive control. Compound (1) (15 mg/kg, i.p.) was administered in 50% 2-hydroxypropyl-β-cyclodextrin, 1 h before tests. The test lasted 10 minutes and was carried out as described before. The difference in the percentage of time spent investigating the male minus the female stimuli was calculated, out of the total time spent investigating stimuli animals. Animals were submitted to a test on day 1 and on day 15. From day 2 to 14 the Compound (1) group received a daily injection of the compound (15 mg/kg, i.p.), while both the vehicle and the progesterone groups received an injection of vehicle. On day 15 the test took place again, as described for day 1.
Ovariectomised female rats (Sprague Dawley, obtained from Charles River, UK) were stereotaxically implanted (coordinates 0.89 mm behind Bregma, 1.3 mm lateral and 2.5 mm vertical) with stainless steel cannulae (6 mm long, O.D. 0.75 mm), held in place with dental cement. Animals were housed in groups of three and returned to a reversed lighting system of 12 h light:dark (lights off 5.00-17.00 h). Correct placement of the cannulae was assessed post-mortem. Rats were used for tests two weeks after ovariectomy (one week after cannulation). The experiments started at least 5 h into the dark period. […]

Test [5] has the same test system. The experiment in a line: Inhibition of female rat sexual proceptivity by NMB and its antagonism. The format is in vivo. As to conditions: progesterone 0.5 mg/0.1 ml s.c. 4 h before test, vs vehicle group. The method, then: Ovariectomised female rats (Sprague Dawley, obtained from Charles River, UK) were stereotaxically implanted (coordinates 0.89 mm behind Bregma, 1.3 mm lateral and 2.5 mm vertical) with stainless steel cannulae (6 mm long, O.D. 0.75 mm), held in place with dental cement. Animals were housed in groups of three and returned to a reversed lighting system of 12 h light:dark (lights off 5.00-17.00 h). Correct placement of the cannulae was assessed post-mortem. Rats were used for tests two weeks after ovariectomy (one week after cannulation). The experiments started at least 5 h into the dark period. Forty eight hours before tests, the animals were primed with 5 μg oestradiol benzoate (OB) (s.c, in corn oil) and adapted to the apparatus (in the absence of stimuli animals) for 10 min on 2 consecutive days prior testing. The 10 min test was carried out as previously described. The difference in the percentage of time spent investigating male minus female was calculated, out of the total time spent investigating stimuli.
Progesterone (Prog, 0.5 mg/0.1 ml) was dissolved in corn oil and administered subcutaneously (s.c.), 4 h before test, to induce proceptive behaviour. Compound (1) (15 mg/kg, i.p.) was dissolved in 50% 2-hydroxypropyl-β-cyclodextrin in saline and administered 1 h before the i.c.v. administration. Neuromedin B was obtained from Bachem, UK. It was dissolved in isotonic saline and administered i.c.v. over a 30 sec period, with the aid of a pump set to deliver a flow of 10 μl/min, 10 min before tests. The dosing volume was 5 μl/rat. Each rat received a total amount of 100 ng.
From the present study we can conclude that stimulation of BB1 receptors with an agonist results in inhibition of proceptive behaviour. This inhibitory effect may be prevented by the presence of an antagonist. e.g. Compound (1) In FIG. 5 the bars represent percentage of time spent investigating male, minus the percentage of time spent investigating the female stimuli+SEM, (n=8-12 per group). ***P<0.001 vs progesterone (One-way ANOVA followed by Dunnett's test).

T1 sequence (P30550 whole entry): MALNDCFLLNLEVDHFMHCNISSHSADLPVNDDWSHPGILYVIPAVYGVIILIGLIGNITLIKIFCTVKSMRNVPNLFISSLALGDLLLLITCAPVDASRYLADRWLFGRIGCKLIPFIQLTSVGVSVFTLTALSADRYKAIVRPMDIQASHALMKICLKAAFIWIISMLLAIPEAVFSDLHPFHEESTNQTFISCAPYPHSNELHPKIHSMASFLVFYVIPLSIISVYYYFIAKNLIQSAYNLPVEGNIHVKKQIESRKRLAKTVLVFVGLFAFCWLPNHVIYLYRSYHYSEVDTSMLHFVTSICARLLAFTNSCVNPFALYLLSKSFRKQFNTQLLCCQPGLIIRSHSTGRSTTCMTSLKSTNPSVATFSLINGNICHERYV

Take `C[C@@](Cc1c[nH]c2ccccc12)(NS(=O)(=O)c1cccc(C(F)(F)F)c1)C(=O)NCC1(c2ccccn2)CCCCC1` [Example 124]: the half-maximal inhibitory concentration (IC50) worked out at 2250 nM in test [1] and 440 nM in test [2].
As to `CC(=O)[C@H]1CC[C@H]2[C@@H]3CCC4=CC(=O)CC[C@]4(C)[C@H]3CC[C@]12C` [progesterone, reference compound], in test [3], the LH plasma levels entry is “significant decrease” and the progesterone plasma levels result is recorded as “significant increase”. Moreover, in test [4], the “effect on proceptivity, day 1” value was “stimulatory effect on proceptivity”. Further, the “percentage of time spent investigating the male stimulus” value in test [5] is given as “increased the percentage of time spent investigating the male stimulus”.
`C[C@@](Cc1c[nH]c2ccccc12)(NS(=O)(=O)c1cccc([N+](=O)[O-])c1)C(=O)NCC1(c2ccccn2)CCCCC1` [Example 121]: the IC50 is 1960 nM in test [1] and 208 nM in test [2].
For `C[C@@](Cc1c[nH]c2ccccc12)(NS(=O)(=O)c1ccc(F)c(Cl)c1)C(=O)NCC1(c2ccccn2)CCCCC1` [Example 156] the same measures were 1220 nM and 284 nM.

Source of the values: patent publication US20040087561A1, “Treatment of sexual dysfunction” (priority 2000, published 2004).
